In brackets after ≈: the same amount, converted by molar mass.
Tests used:
[1] = Stability in human liver microsomes assessed as parent compound remaining at 1 uM measured after 60 mins in presence of NADPH by LC-MS/MS analysis; type: ADME, Microsome; conditions: read-out: Stability
[2] = molecular target: T1, Tankyrase 1/2 (Homo sapiens, UniProt Q9H2K2+O95271)
T1 sequence (Q9H2K2 whole entry): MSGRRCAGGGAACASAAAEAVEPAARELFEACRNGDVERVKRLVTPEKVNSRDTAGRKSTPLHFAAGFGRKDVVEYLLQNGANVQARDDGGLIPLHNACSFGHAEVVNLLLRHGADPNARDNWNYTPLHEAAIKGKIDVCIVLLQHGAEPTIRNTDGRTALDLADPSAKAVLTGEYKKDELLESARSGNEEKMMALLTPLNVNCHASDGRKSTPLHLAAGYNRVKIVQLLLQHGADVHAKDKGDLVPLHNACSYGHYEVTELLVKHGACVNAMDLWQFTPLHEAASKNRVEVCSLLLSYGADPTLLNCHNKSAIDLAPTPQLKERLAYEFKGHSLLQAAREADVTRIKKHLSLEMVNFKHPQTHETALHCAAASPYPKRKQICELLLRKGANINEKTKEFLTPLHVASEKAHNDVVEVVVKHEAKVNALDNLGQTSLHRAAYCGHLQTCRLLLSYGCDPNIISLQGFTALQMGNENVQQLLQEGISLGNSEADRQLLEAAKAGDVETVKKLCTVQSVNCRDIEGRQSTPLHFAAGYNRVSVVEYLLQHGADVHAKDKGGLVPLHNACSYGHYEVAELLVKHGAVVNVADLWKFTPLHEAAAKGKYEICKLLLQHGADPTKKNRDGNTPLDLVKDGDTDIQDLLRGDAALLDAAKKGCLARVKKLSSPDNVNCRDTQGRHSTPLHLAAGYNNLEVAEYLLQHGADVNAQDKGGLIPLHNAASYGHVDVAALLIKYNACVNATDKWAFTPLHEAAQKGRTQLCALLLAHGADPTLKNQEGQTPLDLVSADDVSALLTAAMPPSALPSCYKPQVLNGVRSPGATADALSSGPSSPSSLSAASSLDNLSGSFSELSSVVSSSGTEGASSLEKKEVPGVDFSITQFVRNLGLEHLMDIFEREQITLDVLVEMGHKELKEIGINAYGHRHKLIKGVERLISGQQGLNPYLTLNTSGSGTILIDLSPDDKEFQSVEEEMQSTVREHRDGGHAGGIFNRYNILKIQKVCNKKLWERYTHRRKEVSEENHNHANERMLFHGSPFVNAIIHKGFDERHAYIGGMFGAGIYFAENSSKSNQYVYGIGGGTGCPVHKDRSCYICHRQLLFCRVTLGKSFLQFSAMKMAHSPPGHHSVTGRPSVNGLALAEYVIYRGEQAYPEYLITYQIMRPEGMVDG
T1 sequence (O95271 whole entry): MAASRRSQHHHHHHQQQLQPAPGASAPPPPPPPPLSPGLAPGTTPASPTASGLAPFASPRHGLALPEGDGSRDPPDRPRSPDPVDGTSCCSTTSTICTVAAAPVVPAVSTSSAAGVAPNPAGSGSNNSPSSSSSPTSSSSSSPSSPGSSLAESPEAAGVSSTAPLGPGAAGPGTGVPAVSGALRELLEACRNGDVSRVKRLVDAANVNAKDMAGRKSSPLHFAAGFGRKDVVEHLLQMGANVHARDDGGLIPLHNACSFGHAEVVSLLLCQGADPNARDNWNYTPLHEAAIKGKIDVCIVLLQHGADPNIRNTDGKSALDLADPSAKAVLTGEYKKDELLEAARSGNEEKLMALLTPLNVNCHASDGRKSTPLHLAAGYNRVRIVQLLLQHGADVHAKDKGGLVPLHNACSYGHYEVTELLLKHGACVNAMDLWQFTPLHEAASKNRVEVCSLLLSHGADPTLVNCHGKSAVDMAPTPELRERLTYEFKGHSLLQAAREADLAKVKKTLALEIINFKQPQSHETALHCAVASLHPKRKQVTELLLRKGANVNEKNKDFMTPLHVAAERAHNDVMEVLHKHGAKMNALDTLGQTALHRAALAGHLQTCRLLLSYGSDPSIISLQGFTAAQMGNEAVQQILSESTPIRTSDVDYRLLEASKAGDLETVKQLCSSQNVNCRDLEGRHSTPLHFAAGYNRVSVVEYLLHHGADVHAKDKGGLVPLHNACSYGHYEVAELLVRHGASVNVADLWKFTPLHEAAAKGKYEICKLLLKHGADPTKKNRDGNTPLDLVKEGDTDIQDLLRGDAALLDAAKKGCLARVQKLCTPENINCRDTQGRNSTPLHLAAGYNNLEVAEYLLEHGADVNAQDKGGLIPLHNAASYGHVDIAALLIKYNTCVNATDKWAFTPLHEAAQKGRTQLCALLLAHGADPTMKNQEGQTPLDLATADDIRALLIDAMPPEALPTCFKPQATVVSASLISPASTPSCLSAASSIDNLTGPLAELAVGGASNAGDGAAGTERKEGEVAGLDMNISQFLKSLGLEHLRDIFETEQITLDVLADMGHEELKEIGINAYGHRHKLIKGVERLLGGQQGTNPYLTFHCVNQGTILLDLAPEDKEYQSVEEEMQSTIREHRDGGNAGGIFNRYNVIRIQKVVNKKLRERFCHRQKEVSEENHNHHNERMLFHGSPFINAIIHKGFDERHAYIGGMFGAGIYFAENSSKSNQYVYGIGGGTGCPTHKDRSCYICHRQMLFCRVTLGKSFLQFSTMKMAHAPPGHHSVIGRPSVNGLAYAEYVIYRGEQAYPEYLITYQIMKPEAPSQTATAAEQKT
Description: Inhibition of TNKS/TNKS2 (unknown origin) expressed in human DLD1 cells assessed as reduction in Wnt-signaling measured after 24 hrs by TCF-luciferase reporter gene assay

[3] = molecular target: T2, Poly [ADP-ribose] polymerase tankyrase-2 (Homo sapiens, UniProt Q9H2K2); experiment: Inhibition of recombinant human N-terminal TEV cleavage site-fused/FLAG-poly his-tagged TNKS2 ARC5-SAM-PARP domain (613 to 1166 residues) expressed in Escherichia coli assessed as reduction in auto-PARylation preincubated for 10 mins followed by biotinylated-NAD+ addition and measured after 45 mins by ELISA
T2 sequence (Q9H2K2 whole entry): T1 sequence (Q9H2K2 whole entry)

[4] = Stability in mouse liver microsomes assessed as parent compound remaining at 1 uM measured after 60 mins in presence of NADPH by LC-MS/MS analysis; type: ADME, Microsome; conditions: read-out: Stability
[5] = molecular target: T1, Tankyrase 1/2; conditions: hek293
Description: Inhibition of TNKS/TNKS2 (unknown origin) expressed in HEK293 cells assessed as reduction in Wnt-signaling measured after 24 hrs by TCF-luciferase reporter gene assay

[6] = molecular target: T3, Poly [ADP-ribose] polymerase tankyrase-1 (Homo sapiens, UniProt O95271)
T3 sequence (O95271 whole entry): T1 sequence (O95271 whole entry)
Description: Inhibition of recombinant human N-terminal TEV cleavage site-fused/FLAG-poly his-tagged TNKS SAM-PARP domain (1024 to 1327 residues) expressed in Escherichia coli assessed as reduction in auto-PARylation preincubated for 10 mins followed by biotinylated-NAD+ addition and measured after 45 mins by ELISA

[7] = test system: COLO 320DM; experiment: Antiproliferative activity against human COLO320DM cells assessed as inhibition of cell growth measured after 4 days by CellTiter-Glo assay; type: functional; conditions: 96 h
[8] = physchem; conditions: phosphate buffered saline, pH 7.4
[9] = Efflux ratio of permeability across basolateral to apical side over apical to basolateral side in MDCK2 cells; type: ADME, cell-based, Canis lupus familiaris, MDCK-II; conditions: dog, mdck
[10] = test system: MDR1; experiment: Efflux ratio of permeability across basolateral to apical side over apical to basolateral side in MDCK2-MDR1 cells; type: ADME, cell-based, Canis lupus familiaris; conditions: dog, MDCK-MDR1
[11] = Net efflux ratio of permeability across basolateral to apical side over apical to basolateral side in MDCK2-MDR1 cells to MDCK2 cells; type: ADME, cell-based, Canis lupus familiaris; conditions: dog, mdck

CN1CCCc2c1nc(N1CCC3(CC1)C(=O)N(C)c1cc(OCCN4CCCC4)cc(F)c13)[nH]c2=O
remaining at 1 h, 1 µM [1]: 61.5% | IC50 [2]: 6.6 nM | IC50 [3]: 12.4 nM | remaining at 1 h, 1 µM [4]: 100% | IC50 [5]: 0.4 nM | IC50 [6]: 11.1 nM | GI50 [7]: 1080 nM | solubility at 1 h, 200 µM [8]: 100 µg/mL (≈ 196 µM) | efflux ratio [9]: 7.1 | efflux ratio [10]: 21.9 | Ratio [11]: 3.1

C[C@@H]1CN(c2cc(F)c3c(c2)N(C)C(=O)C32CCN(c3nc4c(c(=O)[nH]3)CCCN4C)CC2)C[C@H](C)N1
remaining at 1 h, 1 µM [1]: 33% | IC50 [2]: 4.3 nM | IC50 [3]: 20.2 nM | remaining at 1 h, 1 µM [4]: 82.7% | IC50 [5]: 0.1 nM | IC50 [6]: 11.1 nM | GI50 [7]: 850 nM | solubility at 1 h, 200 µM [8]: 102 µg/mL (≈ 200 µM) | efflux ratio [9]: 6.2 | efflux ratio [10]: 23.1 | Ratio [11]: 3.7

COc1cc(F)c2c(c1)N(C)C(=O)C21CCN(c2nc3c(c(=O)[nH]2)CCCN3C)CC1
remaining at 1 h, 1 µM [1]: 1.9% | IC50 [2]: 4.5 nM | IC50 [3]: 6.2 nM | remaining at 1 h, 1 µM [4]: 0% | IC50 [5]: 0.2 nM | IC50 [6]: 4.4 nM | GI50 [7]: 130 nM | solubility at 1 h, 200 µM [8]: 4.8 µg/mL (≈ 11.2 µM) | efflux ratio [9]: 1.1 | efflux ratio [10]: 2.7 | Ratio [11]: 2.5

CN(C)c1cc(F)c2c(c1)N(C)C(=O)C21CCN(c2nc3c(c(=O)[nH]2)CCCN3C)CC1
remaining at 1 h, 1 µM [1]: 1.8% | IC50 [2]: 20.7 nM | IC50 [3]: 13 nM | remaining at 1 h, 1 µM [4]: 1.8% | IC50 [5]: 4.6 nM | IC50 [6]: 6.3 nM | GI50 [7]: 1170 nM | solubility at 1 h, 200 µM [8]: 7.4 µg/mL (≈ 16.8 µM) | efflux ratio [9]: 1.1 | efflux ratio [10]: 2.7 | Ratio [11]: 2.5

COCCOc1cc(F)c2c(c1)N(C)C(=O)C21CCN(c2nc3c(c(=O)[nH]2)CCCN3C)CC1
remaining at 1 h, 1 µM [1]: 1.8% | IC50 [2]: 1.3 nM | IC50 [3]: 6.4 nM | remaining at 1 h, 1 µM [4]: 13.7% | IC50 [5]: 0.1 nM | IC50 [6]: 4.8 nM | GI50 [7]: 50 nM | solubility at 1 h, 200 µM [8]: 11.4 µg/mL (≈ 24.2 µM) | efflux ratio [9]: 2.1 | efflux ratio [10]: 7.5 | Ratio [11]: 3.6

COCCN1C(=O)C2(CCN(c3nc4c(c(=O)[nH]3)CCCN4C)CC2)c2c(F)cc(F)cc21
remaining at 1 h, 1 µM [1]: 1.8% | IC50 [2]: 3 nM | IC50 [3]: 11.7 nM | remaining at 1 h, 1 µM [4]: 0.1% | IC50 [5]: 0.3 nM | IC50 [6]: 10.3 nM | GI50 [7]: 50 nM | solubility at 1 h, 200 µM [8]: 6.3 µg/mL (≈ 13.7 µM) | efflux ratio [9]: 1.3 | efflux ratio [10]: 4.8 | Ratio [11]: 3.7

CN(C)CCOc1cc(F)c2c(c1)N(C)C(=O)C21CCN(c2nc3c(c(=O)[nH]2)CCCN3C)CC1
remaining at 1 h, 1 µM [1]: 54.4% | IC50 [2]: 6.1 nM | IC50 [3]: 11.1 nM | remaining at 1 h, 1 µM [4]: 83.7% | IC50 [5]: 0.3 nM | IC50 [6]: 4.9 nM | GI50 [7]: 810 nM | solubility at 1 h, 200 µM [8]: 95 µg/mL (≈ 196 µM) | efflux ratio [9]: 9.2 | efflux ratio [10]: 22.7 | Ratio [11]: 2.5

CN1CCCc2c1nc(N1CCC3(CC1)C(=O)N(C)c1cc(OCCN4CCOCC4)cc(F)c13)[nH]c2=O
remaining at 1 h, 1 µM [1]: 1.5% | IC50 [2]: 2.8 nM | IC50 [3]: 17.1 nM | remaining at 1 h, 1 µM [4]: 41.4% | IC50 [5]: 0.3 nM | IC50 [6]: 9.2 nM | GI50 [7]: 330 nM | solubility at 1 h, 200 µM [8]: 101 µg/mL (≈ 192 µM) | efflux ratio [9]: 5.1 | efflux ratio [10]: 29.1 | Ratio [11]: 5.7

CN1CCCc2c1nc(N1CCC3(CC1)C(=O)N(C)c1cc(N4CCCCC4)cc(F)c13)[nH]c2=O
remaining at 1 h, 1 µM [1]: 1.5% | IC50 [2]: 6.4 nM | IC50 [3]: 49.1 nM | remaining at 1 h, 1 µM [4]: 10.5% | IC50 [5]: 0.7 nM | IC50 [6]: 21.3 nM | GI50 [7]: 300 nM | solubility at 1 h, 200 µM [8]: 5 µg/mL (≈ 10.4 µM) | efflux ratio [9]: 1 | efflux ratio [10]: 2.3 | Ratio [11]: 2.3

Reference: ChEMBL document CHEMBL4342498, “Design and Discovery of an Orally Efficacious Spiroindolinone-Based Tankyrase Inhibitor for the Treatment of Colon Cancer” (J Med Chem, 2020)
